Test results published in article PMC9024521, “4-Heteroaryl Substituted Amino-3,5-Dicyanopyridines as New Adenosine Receptor Ligands: Novel Insights on Structure-Activity Relationships and Perspectives” (Pharmaceuticals, 2022).

Legend:
[1] = molecular target: T1, hA2B AR (Homo sapiens, UniProt P29275); assay: cAMP assay in CHO cells expressing hA2B AR (stimulation of cAMP production); type: cell-based; conditions: for Emax at 1 µM: CHO, 1 µM compound, in comparison with NECA (1 µM = 100%), read-out: Efficacy hA2B (cAMP assay) (converted); for EC50: hA2B CHO cells, mean ± SEM of four assays
T1 construct: host or cells: CHO cells
T1 sequence (P29275 1-332): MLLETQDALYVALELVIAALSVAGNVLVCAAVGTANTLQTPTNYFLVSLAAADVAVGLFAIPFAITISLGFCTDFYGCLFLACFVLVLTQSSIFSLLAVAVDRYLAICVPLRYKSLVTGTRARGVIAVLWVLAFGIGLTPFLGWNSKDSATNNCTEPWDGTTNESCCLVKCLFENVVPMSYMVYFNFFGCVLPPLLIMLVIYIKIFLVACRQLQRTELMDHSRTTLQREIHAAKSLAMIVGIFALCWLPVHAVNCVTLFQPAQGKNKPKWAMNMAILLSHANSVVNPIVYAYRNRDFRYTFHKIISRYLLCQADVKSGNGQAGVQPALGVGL
Method: (§1) The amino-3,5-dicyanopyridines 1–21 were tested for their affinity at hA1, hA2A and hA3 ARs, stably transfected in Chinese Hamster Ovary (CHO) cells. Moreover, they were also studied as hA2B agonists by evaluating their stimulatory effect on cAMP production in CHO cells, stably expressing the hA2B AR. […] Due to their interesting pan profile, both compounds 1 and 5 were evaluated as AR agonists also at the hA2A and hA3 subtypes.
(§2) CHO cells transfected with hA1, hA2A, hA2B and hA3 ARs (Perkin Elmer, Boston, MA, USA) were grown adherently and maintained in Dulbecco’s modified Eagle’s medium with nutrient mixture F12, containing 10% fetal calf serum, penicillin (100 U/mL), streptomycin (100 μg/mL), L-glutamine (2 mM) and geneticine (G418; 0.2 mg/mL), at 37 °C, in 5% CO2/95% air, until their use in cAMP assays. For membrane preparation, the culture medium was removed, and the cells were washed with phosphate-buffered saline and scraped off T75 flasks in ice-cold hypotonic buffer (5 mM Tris HCl, 1 mM EDTA, pH 7.4). The cell suspension was homogenized with a Polytron, centrifuged for 30 min at 40,000× g, at 4 °C, and the resulting membrane pellet was used for competition binding experiments.
(§3) CHO cells transfected with hAR subtypes were washed with phosphate-buffered saline, detached with tripsine and centrifuged for 10 min at 200× g. Cells were seeded in a 96-well white half-area microplate (Perkin Elmer, Boston, USA) in a stimulation buffer composed of Hank Balanced Salt Solution, 5 mM HEPES, 0.5 mM Ro 20–1724, 0.1% BSA. The cAMP levels were then quantified by using the AlphaScreen cAMP Detection Kit (Perkin Elmer, Boston, MA, USA), following the manufacturer’s instructions. At the end of the experiments, the plates were read with a Perkin Elmer EnSight Multimode Plate Reader.

[2] = molecular target: T2, hA1AR (Homo sapiens, UniProt P30542); assay: Competition binding, [3H]DPCPX, hA1 CHO cell membranes; conditions: displacement of [3H]DPCPX, hA1 CHO cells; mean ± SEM of four assays
T2 construct: host or cells: CHO cells
T2 sequence (P30542 1-326): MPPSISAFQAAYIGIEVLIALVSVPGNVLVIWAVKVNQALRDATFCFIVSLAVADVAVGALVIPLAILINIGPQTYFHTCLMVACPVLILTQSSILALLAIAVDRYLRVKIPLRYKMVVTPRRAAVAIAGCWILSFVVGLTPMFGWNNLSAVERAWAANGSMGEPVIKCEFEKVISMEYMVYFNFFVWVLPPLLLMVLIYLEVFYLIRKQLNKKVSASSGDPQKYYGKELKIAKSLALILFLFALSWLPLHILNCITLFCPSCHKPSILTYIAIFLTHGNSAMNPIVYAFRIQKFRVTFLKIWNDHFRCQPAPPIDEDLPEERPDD
Method: as §2
(§4) All synthesized compounds were tested for their affinity to hA1, hA2A and hA3 ARs. Competition experiments to hA1AR were carried out by incubating 1 nM [^3H]-8-cyclopentyl-1,3-dipropylxanthine ([^3H]-DPCPX) with membrane suspension (50 μg of protein/100 μL) and different concentrations of the examined compounds at 25 °C for 90 min in 50 mM Tris HCl, pH 7.4. Non-specific binding was defined as binding in the presence of 1 μM DPCPX and was always <10% of the total binding. Inhibition experiments to hA2A ARs were performed by incubating the radioligand [^3H]-4-(-2-[7-amino-2-{2-furyl}{1,2,4}triazolo{2,3-a} {1,3,5}triazin-5-yl-amino]ethyl)phenol ([^3H]-ZM241385) (1 nM) with the membrane suspension (50 μg of protein/100 μL) and different concentrations of the examined compounds for 60 min, at 4 °C, in 50 mM Tris HCl (pH 7.4), 10 mM MgCl2. Non-specific binding was determined in the presence of ZM241385 (1 μM) and was about 20% of the total binding. Competition binding experiments to A3ARs were carried out by incubating the membrane suspension (50 μg of protein/100 μL) with 0.5 nM [^125I]-N6-(4-aminobenzyl)-N-methylcarboxamidoadenosine ([^125I]-ABMECA) in the presence of different concentrations of the examined compounds for an incubation time of 120 min, at 4 °C, in 50 mM Tris HCl (pH 7.4), 10 mM MgCl2, 1 mM EDTA. Non-specific binding was defined as binding in the presence of 1 μM ABMECA and was always <10% of the total binding. Bound and free radioactivity were separated by filtering the assay mixture through Whatman GF/B glass-fiber filters, using a Brandel cell harvester (Brandel Instruments, Unterföhring, Germany). The filter bound radioactivity was counted by Packard Tri Carb 2810 TR scintillation counter (Perkin Elmer).
(§5) The protein concentration was determined according to a Bio-Rad method, with bovine albumin as a standard reference. Inhibitory binding constant (Ki) values were calculated from those of IC50 according to the Cheng–Prusoff equation, Ki = IC50/(1 + [C*]/KD*), where [C*] is the concentration of the radioligand, and KD* its dissociation constant. Ki and IC50 values were calculated by non-linear regression analysis, using the equation for a sigmoid concentration-response curve (Graph-PAD Prism, San Diego, CA, USA).

[3] = molecular target: T3, hA2AAR (Homo sapiens, UniProt P29274); assay: Competition binding, [3H]ZM241385, hA2A CHO cell membranes; conditions: for Ki: displacement of [3H]ZM241385, hA2A CHO cells, mean ± SEM of four assays
T3 construct: host or cells: CHO cells
Method: as §2, §4, §5

[4] = molecular target: T4, hA3AR (Homo sapiens, UniProt P0DMS8); assay: Competition binding, [125I]AB-MECA, hA3 CHO cell membranes; conditions: for inhibition at 1 µM: 1 µM compound, [125I]AB-MECA binding, read-out: I% hA3 (percentage of inhibition); for Ki: displacement of [125I]AB-MECA, hA3 CHO cells, mean ± SEM of four assays
T4 construct: host or cells: CHO cells
T4 sequence (P0DMS8 1-318): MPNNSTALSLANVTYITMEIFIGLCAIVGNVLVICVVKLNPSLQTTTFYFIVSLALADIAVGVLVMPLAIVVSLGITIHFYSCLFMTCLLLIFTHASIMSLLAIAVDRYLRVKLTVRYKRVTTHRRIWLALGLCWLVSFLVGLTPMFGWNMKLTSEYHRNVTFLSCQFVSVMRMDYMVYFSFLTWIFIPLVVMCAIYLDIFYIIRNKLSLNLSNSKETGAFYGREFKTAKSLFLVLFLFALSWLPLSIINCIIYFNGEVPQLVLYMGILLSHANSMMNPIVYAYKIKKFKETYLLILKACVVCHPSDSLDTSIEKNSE
Method: as §2, §4, §5

[5] = molecular target: T2, hA1AR; assay: Modulation of Forskolin-stimulated cAMP levels in hA1 CHO cells; type: cell-based
Method: as §1, §2, §3

T3 sequence (P29274 whole entry): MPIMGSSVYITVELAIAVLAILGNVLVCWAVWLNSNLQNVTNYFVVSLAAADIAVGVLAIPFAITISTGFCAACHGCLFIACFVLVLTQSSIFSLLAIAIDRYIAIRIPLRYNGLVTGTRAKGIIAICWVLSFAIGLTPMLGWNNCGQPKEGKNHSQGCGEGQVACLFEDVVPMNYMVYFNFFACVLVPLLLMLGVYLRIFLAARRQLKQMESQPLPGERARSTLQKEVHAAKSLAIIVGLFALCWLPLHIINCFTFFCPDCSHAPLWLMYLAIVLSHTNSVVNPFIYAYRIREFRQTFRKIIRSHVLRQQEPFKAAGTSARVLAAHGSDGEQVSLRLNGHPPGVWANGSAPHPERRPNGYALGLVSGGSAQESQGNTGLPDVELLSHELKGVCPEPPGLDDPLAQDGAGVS

| SMILES | Emax at 1 µM [1] [%] | EC50 [1] [nM] | Ki [2] [nM] | inhibition at 1 µM ([3]; 1 µM compound, [3H]ZM241385 binding, read-out: I% hA2A (percentage of inhibition)) [%] | melting point | inhibition at 1 µM [4] [%] | Ki [3] [nM] | Ki [4] [nM] | EC50 ([5]; footnote c, mean ± SEM of four experiments, read-out: hA1AR EC50 or IC50, potency to modulate Forskolin-stimulated cAMP levels) [nM] | hA1AR Efficacy ([5]; normalized: CCPA full agonist = 100%, DPCPX inverse agonist = −100%) [%] | hA1AR Profile ([5]; pharmacological profile in cAMP assay) |
| --- | --- | --- | --- | --- | --- | --- | --- | --- | --- | --- | --- |
| N#Cc1c(NC2CC2)nc(SCc2ncc[nH]2)c(C#N)c1-c1ccco1 [Compound 19] | 13 | > 1000 | 292 ± 26 | 1 | 241 to 242 °C | 18 |  |  |  |  |  |
| Br.N#Cc1c(N)nc(SCc2ncc[nH]2)c(C#N)c1-c1ccc(CO)o1 [Compound 2, 2-Amino-4-[5-(hydroxymethyl)furan-2-yl]-6-[(1H-imidazol-2-ylmethyl)sulfanyl]pyridine-3,5-dicarbonitrile hydrobromide] | 8 | > 1000 | 190 ± 16 |  | 293 to 294 °C |  | 233 ± 19 | 290 ± 23 |  |  |  |
| N#Cc1c(N)nc(SCc2ncc[nH]2)c(C#N)c1-c1ccncc1 [Compound 7, 2-Amino-6-[(1H-imidazol-2-ylmethyl)sulfanyl]-4,4′-bipyridine-3,5-dicarbonitrile] | 36 | 12.5 ± 1.3 | 8.85 ± 0.82 |  | 230 °C (dec.) | 26 | 81 ± 7 |  |  |  |  |
| Cc1ccc(-c2c(C#N)c(N)nc(SCc3ncc[nH]3)c2C#N)o1 [Compound 3, 2-Amino-6-[(1H-imidazol-2-ylmethyl)sulfanyl]-4-(5-methylfuran-2-yl)pyridine-3,5-dicarbonitrile] | 1 | > 1000 | 10.1 ± 0.8 |  |  |  | 10.5 ± 0.9 | 279 ± 21 |  |  |  |
| N#Cc1c(SCc2ncc[nH]2)nc(N2CCCC2)c(C#N)c1-c1ccco1 [Compound 20] | 8 | > 1000 | 41 ± 3 |  | 232 to 234 °C |  | 89 ± 7 | 118 ± 11 |  |  |  |
| N#Cc1c(N)nc(SCc2ncc[nH]2)c(C#N)c1-c1ccc(O)nc1 [Compound 10, 2′-Amino-6-hydroxy-6′-[(1H-imidazol-2-ylmethyl)sulfanyl]-3,4′-bipyridine-3′,5′-dicarbonitrile] | 1 | > 1000 | 149 ± 11 |  |  | 23 | 613 ± 53 |  |  |  |  |
| N#Cc1c(N)nc(SCc2csc(C(=O)NCCc3cnc[nH]3)n2)c(C#N)c1-c1ccco1 [Compound 17, 4-({[6-Amino-3,5-dicyano-4-(furan-2-yl)pyridin-2-yl]sulfanyl}methyl)-N-[2-(1H-imidazol-5-yl)ethyl]-1,3-thiazole-2-carboxamide] | 6 | > 1000 | 33 ± 3 |  |  |  | 279 ± 22 | 542 ± 48 | 38 ± 3 | 54 ± 4 | Partial Agonist |
| COc1ccc(-c2c(C#N)c(N)nc(SCc3ncc[nH]3)c2C#N)cn1 [Compound 9, 2′-Amino-6′-[(1H-imidazol-2-ylmethyl)sulfanyl]-6-methoxy-3,4′-bipyridine-3′,5′-dicarbonitrile] | 7 | > 1000 | 2.71 ± 0.18 |  | 232 to 233 °C |  | 377 ± 32 | 798 ± 72 |  |  |  |
| N#Cc1c(N)nc(SCc2ncc[nH]2)c(C#N)c1-c1cccnc1 [Compound 8, 2′-Amino-6′-[(1H-imidazol-2-ylmethyl)sulfanyl]-3,4′-bipyridine-3′,5′-dicarbonitrile] | 58 | 63 ± 5 | 5.26 ± 0.48 |  | 244 to 245 °C (dec.) | 19 | 463 ± 38 |  |  |  |  |
| N#Cc1c(N)nc(SCC(=O)NCc2ncc[nH]2)c(C#N)c1-c1ccco1 [Compound 14, 2-{[6-Amino-3,5-dicyano-4-(furan-2-yl)pyridin-2-yl]sulfanyl}-N-(1H-imidazol-2-ylmethyl)acetamide] | 6 | > 1000 | 87 ± 7 |  |  | 33 | 817 ± 71 |  |  |  |  |
| N#Cc1c(NC2CCCC2)nc(SCc2ncc[nH]2)c(C#N)c1-c1ccco1 [Compound 18] | 2 | > 1000 | 393 ± 32 |  | 221 to 222 °C |  | 138 ± 11 | 279 ± 21 |  |  |  |
| CC(=O)Nc1nc(SCc2ncc[nH]2)c(C#N)c(-c2ccco2)c1C#N [Compound 21, N-{3,5-dicyano-4-(furan-2-yl)-6-[(1H-imidazol-2-ylmethyl)sulfanyl]pyridin-2-yl}acetamide] | 1 | > 1000 | 34 ± 3 |  |  |  | 394 ± 27 | 768 ± 63 |  |  |  |
| N#Cc1c(N)nc(SCc2ncc[nH]2)c(C#N)c1-c1ccoc1 [Compound 4, 2-Amino-4-(furan-3-yl)-6-[(1H-imidazol-2-ylmethyl)sulfanyl]pyridine-3,5-dicarbonitrile] | 42 | 2.32 ± 0.21 | 0.77 ± 0.09 |  |  |  | 37 ± 3 | 274 ± 23 |  |  |  |
